From PMC5125695, “Antiviral Efficacy of Verdinexor In Vivo in Two Animal Models of Influenza A Virus Infection” (PLoS ONE, 2016)
“Also recorded” adds a separate entry of the source.

Test system: Influenza A/WSN/33
Assay type: cell-based

## O=C(/C=C\n1cnc(-c2cc(C(F)(F)F)cc(C(F)(F)F)c2)n1)NNc1ccccn1 [verdinexor]
  Sensitivity of passaged virus to verdinexor: did not result in a reduction of drug sensitivity; also recorded: remained sensitive
